Structures can show the parent of a compound that is named as a salt. Blank lines part the entries; values can stand above or below the compound they belong to.
Assays:
[1] = molecular target: T1, purified human recombinant aldose reductase (Homo sapiens, UniProt P15121); assay: Aldose reductase (AR) inhibition, spectrophotometric NADPH oxidation assay; format: biochemical; settings: for IC50: read-out: Aldose reductase inhibitory IC50
T1 construct: made in house; host or cells: E. coli
From the text: For enzyme inhibition studies, purified human recombinant aldose reductase (expressed in E. coli) was used for testing the aldose reductase (AR) inhibitory activity of beta adrenergic antagonists by a spectrophotometric method, using glyceraldehydes as substrate, (Mol. Vis. 2004, 10, 148-154). Recombinant human aldose reductase was purified from bacterial cultures. Enzyme from expression cultures was extracted and purified essentially as described previously (J Biol Chem 1992; 267: 24833-40) with the exception that affinity chromatography over AffiGel Blue (Bio-Rad) was used as a final purification step. AR activity was assayed according to the method described by Hayman and Kinoshita (J Biol Chem 1965; 240: 877-82). The assay mixture in 1 ml contained 50 μM potassium phosphate buffer pH 6.2, 0.4 mM lithium sulfate, 5 μM 2-mercaptoethanol, 10 μM DL-glyceraldehyde, 0.1 μM NADPH, and enzyme preparation (rat lens or recombinant enzyme). Appropriate blanks were employed for corrections. The assay mixture was incubated at 37° C. and initiated by the addition of NADPH at 37° C. The change in the absorbance at 340 nm due to NADPH oxidation was followed in a Cary Bio 100 spectrophotometer. For inhibition studies concentrated stocks of the Beta adrenergic antagonists, timolol, esmolol, sotalol, nebivolol, carvedilol, metoprolol and labetalol were prepared in water. Various concentrations of Beta adrenergic antagonists, as test compounds, were added to the assay mixture and incubated for 5-10 minutes before initiating the reaction by NADPH as described above. The percent of inhibition with test compounds was calculated considering the AR activity in the absence of inhibitor was 100%. The concentration of each test sample giving 50% inhibition (IC50) was then estimated.

[2] = system: collagen (hydroxyproline); assay: Measurement of collagen (tissue hydroxyproline by HPLC); format: in vivo, rat; parameters: Collagen production: unit not given here
From the text: The synthesis of the 19 known collagens occurs within the cell, as it does for other proteins. The collagen molecule is characterized by the repeating sequence Gly-X-Y, with X often being proline and Y often being hydroxyproline. Hydroxyproline is the end product of collagen breakdown. For this reason, tissue hydroxyproline level is an indirect and objective variable of tissue collagen production. In many experimental studies, hydroxyproline has been used to assess tissue collagen production.
Collagen levels in the tissue were measured by use of high performance liquid chromatography (HPLC) for separating and quantitating the levels of hydroxyproline from the rat tissue. A reverse-phase Nova-Pak C18 column and solvent system (140 mM sodium acetate, 0.05% triethylamine (TEA), 6% acetonitrile) were used, resulting in complete separation of hydroxyproline. Recovery of standards ranged from 89 to 103% and intra-assay variability was <8%. Additionally, [^3H]hydroxyproline measurements were used to examine changes in collagen turnover in the rat labeled with [^3H]proline and “chased” in the presence of 10 mM unlabeled proline.

[3] = system: formation of sorbitol in red blood cells (RBC); assay: Estimation of sorbitol in red blood cells incubated with 30 mM glucose; format: cell-based
Procedure: The cells were incubated with 30 mM glucose in vitro. Sorbitol was estimated by the method of reported by Malone, et al. Diabetes; 1980; 29: 861-864.

[4] = system: wound on dorsal skin of diabetic Wistar rats; assay: Diabetic wound healing in streptozocin-diabetic rats, topical treatment; format: in vivo; settings: for Wound diameter: diabetic rats, topical
Procedure: Wistar rats were kept in standard autoclaved rodent cages with ad libitum food (Harland Tekland Irradiated Rodent Diet) and autoclaved water. The rats were housed on Harlan Tek-chip pelleted paper in static micro isolators maintained at 72° F., 60% humidity, and a 12 hour light cycle. The animals were kept at the facility for 10 days to get accustomed to the environment, after the arrival from the vendor. Diabetes was induced in the rats by intraperitoneal injection of 50 mg/kg body weight of streptozocin on 5 consecutive days. The wound was created on the rat by using a contortive scratcher to make a 2 mm incision with 0.57-0.62 mm depth on the dorsal skin of the animal. The area was shaved and sanitized with normal lugol's iodine prior to use of the scratcher.
Esmolol hydrochloride (10%) was administered three times daily or the standard treatment control, by smearing the agent directly onto the wound. The positive control used was platelet derived growth factor that is commercially available. The treatment was continued until the wounds of the treated mice were completely healed. […]
Several wound healing parameters were measured on the day 3, day 7, day 12 and day 19 of the creation of the wound. These parameters are reported in separate tables below. The wound size and weight of the rats was measured every alternate day. Specifically, the length and width of the wound were measured by use of micro vernier calipers, and the tensile strength at the edge of the wound was also recorded every other day. The wound diameter was measured by the same investigator on day 3, 12, 19 by the use of an electronic digital vernier caliper (B&D, Pomanus, N.J.). The caliper was calibrated just before the measurement by adjusting the zero error. […]
The area for evaluation was cut clean by an Eppendorf 10 size scalpel and the tissue was preserved in 10% of phosphate buffered formalin solution. The tissues were removed from this formalin solution and immersed in 100% of ethanol for 6 hours. The tissue were again removed and preserved for evaluation in 10% Bouins solution. […]
The quantity of exudation from wound was measured by the use of a micropipette (Eppendorf). […]
The adherence is the strength by which the two ends of the wound are attached together and measured by a Velcro index meter.
Fluid accumulation was measured by volume of fluid obtained from wound using micro pipette as described in Table 8. […]

[5] = system: nitric oxide (nitrate/nitrite); assay: Measurement of nitric oxide (nitrite/nitrate) in tissue by chemiluminescence; format: in vivo, rat; settings: total versus controls
Procedure: Fresh tissue (approximately 0.2 g) was added to 1 ml cold homogenizing buffer (20 mmol/l HEPES-KOH, pH 7.9; 25% glycerol; 420 mmol/l NaCl; 1.5 mmol/l MgCl2; 0.2 mmol/l EDTA; 0.5 mmol/l dithiothreitol; 0.2 mmol/l phenylmethylsulphonyl fluoride). The buffered tissues were homogenized at maximum speed for 5 seconds and cooled in ice-water for 30 seconds. This procedure was repeated five times to ensure complete tissue destruction.
Two volumes of 100% cold ethanol were added to the homogenized samples; these were vortexed and incubated on ice for 30 minutes. The homogenate was centrifuged at 12,000×g for 5 minutes at 4° C., and the supernatant transferred to a new tube on ice for NO measurement.
A rapid-response chemiluminescence analyzer was used to measure total gas phase NO (nitrate/nitrite). NO gas reacts with ozone, producing energy in the form of light, and the light is proportional to the quantity of NO present. The emission was measured using a luminometer to determine NO concentration.
The sample tube was securely connected to a Zero Gas Filter (Sievers Instruments) and room air passed through the device for 5 minutes. […] The sample gas was then exposed to the ozone in the reaction vessel to form activated nitrogen dioxide (NO2), which was detected using a red-sensitive photomultiplier tube, and the output recorded using an integrating pen recorder. […]

IC50 [1]: > 350 µM
SMILES: COc1ccccc1OCCNCC(O)COc1cccc2[nH]c3ccccc3c12 (centres unmarked) [Carvedilol, carvedilol]

aldose reductase inhibition (in words) [1]: effective aldose reductase inhibition | IC50 [1]: 160 µM
SMILES: COC(=O)CCc1ccc(OCC(O)CNC(C)C)cc1 (centres unmarked) [Esmolol, esmolol hydrochloride]
Collagen production ([2]; Day 3): 124 | Collagen production ([2]; Day 7): 287 | Collagen production ([2]; Day 12): 325 | Collagen production ([2]; Day 19): 288 | Collagen production ([2]; Total): 1024 | Collagen production, % Increase ([2]; total versus controls): 68% | Sorbitol concentration in RBC ([3]; RBC under 30 mM glucose + 150 μM of esmolol): 16.16 µg/mL | Ease of removal from wounds ([4]; Day 3): 2.6 +/− 0.2 | Evaluation of biopsy wounds in diabetic rats ([4]; Day 3): 1.3 +/− 0.3 | Exudation ([4]; Day 3): 1.2 ± 0.2 µL | Film transparency ([4]; Day 3): 1.7 +/− 0.3 | Flexibility ([4]; Day 3): 2.3 +/− 0.2 | Fluid accumulation ([4]; Day 3): 2.3 +/− 0.4 | Wound adherence ([4]; Day 3): 2.6 +/− 0.4 | Wound diameter: degree of contraction ([4]; Day 3): 12.17 +/− 5.8% | Wound diameter ([4]; Day 3): 1.28 +/− 0.12 MM | Ease of removal from wounds ([4]; Day 7): 2.8 +/− 0.3 | Evaluation of biopsy wounds in diabetic rats ([4]; Day 7): 1.3 +/− 0.2 | Exudation ([4]; Day 7): 2.7 ± 0.5 µL | Film transparency ([4]; Day 7): 2.3 +/− 0.4 | Flexibility ([4]; Day 7): 2.4 +/− 0.5 | Fluid accumulation ([4]; Day 7): 2.7 +/− 0.5 | Wound adherence ([4]; Day 7): 3.3 +/− 0.3 | Ease of removal from wounds ([4]; Day 12): 2.7 +/− 0.5 | Evaluation of biopsy wounds in diabetic rats ([4]; Day 12): 1.4 +/− 0.3 | Exudation ([4]; Day 12): 3.5 ± 0.6 µL | Film transparency ([4]; Day 12): 2.6 +/− 0.6 | Flexibility ([4]; Day 12): 3.5 +/− 0.6 | Fluid accumulation ([4]; Day 12): 2.6 +/− 0.7 | Wound adherence ([4]; Day 12): 3.9 +/− 0.5 | Wound diameter: degree of contraction ([4]; Day 12): 41.86 +/− 13.2% | Wound diameter ([4]; Day 12): 1.37 +/− 0.17 MM | Ease of removal from wounds ([4]; Day 19): 2.5 +/− 0.4 | Evaluation of biopsy wounds in diabetic rats ([4]; Day 19): 1.5 +/− 0.3 | Exudation ([4]; Day 19): 4.9 ± 0.2 µL | Film transparency ([4]; Day 19): 3.3 +/− 0.4 | Flexibility ([4]; Day 19): 3.9 +/− 0.8 | Fluid accumulation ([4]; Day 19): 2.5 +/− 0.5 | Wound adherence ([4]; Day 19): 4.7 +/− 0.5 | Wound diameter: degree of contraction ([4]; Day 19): 98.64 +/− 9.6% | Wound diameter ([4]; Day 19): 0.79 +/− 0.28 MM | Ease of removal from wounds ([4]; Total): 10.6 +/− 1.4 | Evaluation of biopsy wounds in diabetic rats ([4]; Total): 5.5 +/− 1.1 | Exudation ([4]; Total): 12.3 ± 1.1 µL | Film transparency ([4]; Total): 9.9 +/− 1.1 | Flexibility ([4]; Total): 12.1 +/− 2.9 | Fluid accumulation ([4]; Total): 10.1 +/− 1.2 | Wound adherence ([4]; Total): 14.5 +/− 0.9 | Period for epithelization ([4]; rat, in vivo): 9.8 ± 0.8 days | Scar formation ([4]; rat, in vivo): 1.3 +/− 0.4 Score | Time taken for complete wound closure ([4]; rat, in vivo): 19.6 ± 2.2 days | NO increase, % Increase [5]: 53%

IC50 [1]: > 350 µM
SMILES: CC(CCc1ccccc1)NCC(O)c1ccc(O)c(C(N)=O)c1 (centres unmarked) [Labetalol, labetalol hydrochloride]

IC50 [1]: > 350 µM
SMILES: COCCc1ccc(OCC(O)CNC(C)C)cc1 (centres unmarked) [Metoprolol, metoprolol tartrate]

IC50 [1]: > 350 µM
SMILES: OC(CNCC(O)C1CCc2cc(F)ccc2O1)C1CCc2cc(F)ccc2O1 (centres unmarked) [Nebivolol, nebivolol hydrochloride]

SMILES: CC(C)NCC(O)COc1cccc2ccccc12.Cl (centres unmarked) [Propranolol, propranolol hydrochloride]
Sorbitol concentration in RBC ([3]; RBC under 30 mM glucose + 350 μM of propranolol): 18.25 µg/mL | aldose reductase inhibition (in words) [1]: effective aldose reductase inhibition | IC50 [1]: 350 µM

IC50 [1]: > 350 µM
SMILES: CC(C)NCC(O)c1ccc(NS(C)(=O)=O)cc1 (centres unmarked) [Sotalol, sotalol hydrochloride]

aldose reductase inhibition (in words) [1]: effective aldose reductase inhibition | IC50 [1]: 250 µM
SMILES: CC(C)(C)NC[C@H](O)COc1nsnc1N1CCOCC1 [Timolol, timolol maleate]
Sorbitol concentration in RBC ([3]; RBC under 30 mM glucose + 250 μM of timolol): 17.34 µg/mL

Reference: patent US8686051B2, “Pharmaceutical composition for treatment of diabetic complications” (VLife Sciences Technologies Pvt. Ltd., priority 2007, dated 2014)
